Test results published in US11959095B2, “Compositions, cell constructs, and methods of making and using the same” (Wake Forest University Health Sciences, priority 2016, dated 2024).

Legend:
liver organoids = assay: APAP toxicity testing and N-acetyl-L-cysteine intervention in liver organoids; type: cell-based, human; settings: 10 mM APAP plus 20 mM NAC
[1] = tested on: cells on PEGSSDA hydrogel; assay: Proliferation on PEGSSDA hydrogel softened with NAC, MTS assay; type: cell-based; settings: gels softened on day 4 with NAC 100 mmol for 60 minutes, vs control gels
Method: (§1) In a 96 well plate, we placed 10,000 cells on two sets of nine wells of 50 ul PEGSSDA hydrogel and the wells were filled with DMEM high glucose and cultured for a week. On day 4, one set of gels were softened using NAC 100 mmol for 60 minutes. Now proliferation of cells was compared between control gels and softened gels using MTS assays on day 7.

U138 spheroids = assay: WNT pathway modulation in GBM U138 spheroids in hydrogel; type: cell-based
Method: For the WNT experiments, spheroids of GBM U 138(ATCC® HTB-16™) cell line were formed by hanging drop method in a 96 well plate by using 10,000 cells per drop of 20 μl, which were cultured for 72 hours in high glucose DMEM before being harvested to be setup in HyStem HP-Hydrogels. The spheroids were placed sandwiched between two layers of gel of total volume of 250 μl. The spheroids were then given different media compositions. Normal high glucose media being the control, the spheroids behaviour in WNT pathway agonist BIO and WNT pathway antagonist XAV939 were studied.
Experiments were conducted with single cell cancer spheroids with U138 cells. The WNT pathway was manipulated by adding either an agonist of the WNT pathway BIO or an antagonist of the WNT pathway XAV939 to the media.

[2] = cited from earlier work
[3] = tested on: cells on S3 stiff hydrogel; assay: Proliferation on S3 stiff hydrogel softened with collagenase, MTS assay; type: cell-based; settings: gels softened on day 4 with collagenase (1:10 dilution) for 10 minutes, vs control gels
Method: as §1, with “S3 stiff” for “PEGSSDA”, “collagenase (1:10 dilution)” for “NAC 100 mmol”, “10” for “60”, “contol” for “control”

**Q.** What does the source list for `CC(=O)N[C@@H](CS)C(=O)O` [NAC, N-acetyl-L-cysteine]?
**A.** detected urea production (liver organoids): increased over time; detected albumin production (liver organoids; day 14): 98 ng/mL; proliferation of cells (MTS, day 7) [1]: Reduced proliferation

**Q.** With `O=C1Nc2cc(Br)ccc2/C1=C1/Nc2ccccc2/C1=N\O` [BIO] as the molecule, how does the “proliferation and migration in the spheroids” value (U138 spheroids; WNT pathway agonist added to the media) read?
**A.** shut down proliferation and migration

**Q.** Which results are given for `Cn1nnc2c(C(N)=O)ncn2c1=O` [TMZ, temozolomide]?
**A.** concentrations in the cerebrospinal fluid (CSF) relative to plasma ([2]; CSF vs plasma): approximately 20%; peak CSF concentrations ([2]; CSF): 26 ± 4 µM

**Q.** Which “proliferation of cells (MTS, day 7)” value [3] does the source give for collagenase here?
**A.** the same results were observed

**Q.** For `Oc1nc(-c2ccc(C(F)(F)F)cc2)nc2c1CSCC2` [XAV939], which “cancer cells' phenotype (morphology)” value (U138 spheroids; WNT pathway antagonist added to the media) is on record?
**A.** more epithelial appearance than a mesenchymal appearance
